Source: US20210145768A1, “MODULATING IMMUNE RESPONSE VIA TARGETING OF OLFACTORY RECEPTOR ACTIVITY” (La Jolla Institute for Allergy and Immunology, priority 2018, published 2021)

Legend:
[1] = biological target: T1, OR6A2 (Homo sapiens, UniProt O95222); assay: IL-1β production in LPS-primed human MDMs; type: cell-based
T1 construct: OR6A2 protein surface expression in hMDMs was confirmed by flow cytometry; endogenous in cells; host or cells: human monocyte-derived macrophages from healthy donors (rhM-CSF, 7 d)
T1 sequence (O95222 1-327): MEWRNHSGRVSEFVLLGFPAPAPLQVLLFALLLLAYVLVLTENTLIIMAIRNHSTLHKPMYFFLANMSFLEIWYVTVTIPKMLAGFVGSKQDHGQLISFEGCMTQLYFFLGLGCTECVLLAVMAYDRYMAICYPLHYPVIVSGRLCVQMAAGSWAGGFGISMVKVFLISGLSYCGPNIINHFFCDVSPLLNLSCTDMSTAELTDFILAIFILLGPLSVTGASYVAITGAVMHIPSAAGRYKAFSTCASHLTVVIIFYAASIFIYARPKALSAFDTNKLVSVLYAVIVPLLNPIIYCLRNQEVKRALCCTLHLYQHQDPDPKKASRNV
Protocol: Mouse BMDMs and human MDMs were pretreated with LPS (50 ng/mL) or left untreated for 18 h at 37° C. and 5% CO2. After this period LPS pretreated and untreated cells were further incubated with Oct (10 μM) and Cit (100 μM) alone (LPS+Oct; LPS+Cit; Oct; Cit, respectively) or combined (LPS+Oct+Cit) for further 8 h. Supernatants were collected by centrifugation at 2000 g for 15 minutes at 4° C., collected and frozen at −80° C. until further IL-1β analysis by CBA (BD Biosciences).
Supernatants of stimulated cells and aortic tissue were analyzed by BD CBA Flex Sets (BD Biosciences) for mouse TNFα, CCL2, CCL4, IL-1β, or human TNF, IL6, and IL-1β according to the manufacturer's protocol. Samples were analyzed with LSR-II (BD Biosciences). Data was acquired with FACSDiva software (BD Biosciences) and analyzed with FCAP array software 3.0 (BD Biosciences).

[2] = system: OR6A2; assay: OR6A2 expression in hMDMs (real time PCR, flow cytometry); type: cell-based, human; details: LPS + octanal
Protocol: BMDMs and hMDMs were incubated in culture media for 12 h at 37° C. and 5% CO2 with Oct, (10 μM), LPS (500 ng/mL) alone or combined with Oct (LPS+Oct) and DMSO (0.1%) as a control and lysed with Qiazol (500 μL; Qiagen) Similarly, whole aortas incubated as previously described were transferred into Qiazol (500 μl; Qiagen) and digested with gentleMACS™ Dissociator (Miltenyi).
Total RNA was quantified using a nanodrop spectrophotometer (Peqlab) and 500 ng were reverse transcribed into cDNA using Omniscript reverse transcriptase (Qiagen). Real time PCR reactions were performed according to the RT^2 SYBR green gene expression assay protocol (Qiagen). RT2 SYBR Green qPCR master mix and premade RT^2 qPCR Primer Assays for mouse Olfr2, Rtp1, Rtp2, Ccl2, Ccl4, Tnf, Nos2 and Gapdh were used. Similarly, real time PCR analysis of hMDMs samples was performed following the RT^2 SYBR green gene expression assay protocol (Qiagen), applying RT^2 SYBR Green qPCR master mix and premade RT^2 qPCR Primer Assays for human OR6A2, TNF, IL-6, NOS2 and GAPDH. The results were calculated applying the 2^−ΔΔCT method^32 using Gapdh/GAPDH as housekeeping gene.
BMDMs, hMDMs, mouse blood leukocytes and whole mount aortas were incubated in culture medium with Oct, (10 μM), LPS, (500 ng/mL) alone or combined (LPS+Oct) for 12h at 37° C. and 5% CO2. […]

[3] = biological target: T2, Olfr2 (Mus musculus, UniProt Q9QWU6); assay: Inflammatory gene expression (real time PCR) in explanted whole aortas treated with octanal, citral, LPS; type: cell-based; design: Olfr2 expression was confirmed at the protein level on F4/80^+ vascular macrophages; from tissue; host or cells: explanted whole aortas, digested aortic cell suspensions (F4/80+ vascular macrophages) and blood monocytes of Apoe-/- C57BL/6J mice; living Apoe-/- mice for the in vivo study; details: dose response 3, 10, 30 μM octanal, 12 h
T2 sequence (Q9QWU6 1-327): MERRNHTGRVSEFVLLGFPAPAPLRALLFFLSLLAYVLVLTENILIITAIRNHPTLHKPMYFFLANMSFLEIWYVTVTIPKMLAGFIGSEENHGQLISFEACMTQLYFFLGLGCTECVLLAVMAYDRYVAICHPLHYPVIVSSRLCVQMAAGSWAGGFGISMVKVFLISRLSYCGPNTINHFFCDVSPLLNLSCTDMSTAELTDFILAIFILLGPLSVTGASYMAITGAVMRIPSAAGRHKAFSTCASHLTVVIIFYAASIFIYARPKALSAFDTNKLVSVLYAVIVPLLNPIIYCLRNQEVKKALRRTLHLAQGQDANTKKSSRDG

Compound | octanal-induced IL-1β in the supernatant, hMDMs ([1]; LPS, octanal + citral) | IL-1β in the supernatant, hMDMs ([1]; LPS 50 ng/mL 18 h, then octanal) | OR6A2 mRNA expression in hMDMs [2] | octanal concentration at which enhancement of LPS-induced expression peaks [3] [µM]
CC(C)=CCCC(C)=CC=O [citral] | partially but significantly inhibited | – | – | –
CCCCCCCC=O [octanal] | – | highly significant increase | further augmented | 3 to 10
